{"source": "ChEMBL document CHEMBL4706515", "about": "“Discovery of new [1,2,4] Triazolo[1,5-a]Pyrimidine derivatives that Kill gastric cancer cells via the mitochondria pathway” (Eur J Med Chem, 2020)", "key": {"[1]": {"system": "HGC-27", "assay": "Antiproliferative activity against human HGC-27 cells assessed as inhibition of cell growth at measured after 72 hrs by SRB assay", "assay_type": "functional"}, "[2]": {"system": "BGC-823", "assay": "Antiproliferative activity against human BGC-823 cells assessed as inhibition of cell growth at measured after 72 hrs by SRB assay", "assay_type": "functional"}, "[3]": {"system": "MKN-45", "assay": "Antiproliferative activity against human MKN-45 cells assessed as inhibition of cell growth at measured after 72 hrs by SRB assay", "assay_type": "functional"}, "[4]": {"system": "GES1", "assay": "Cytotoxicity against human GES1 cells assessed as inhibition of cell growth at measured after 72 hrs by SRB assay", "assay_type": "cell-based", "settings": "ges1, 72 h"}, "[5]": {"system": "MGC-803", "assay": "Cell cycle arrest in human MGC-803 cells assessed as accumulation of cells in G2/M phase at 5 uM measured after 24 hrs by PI staining based flow cytometry", "assay_type": "functional"}, "[6]": {"system": "MGC-803", "assay": "Cell cycle arrest in human MGC-803 cells assessed as accumulation of cells in G2/M phase at 10 uM measured after 24 hrs by PI staining based flow cytometry", "assay_type": "functional"}, "[7]": {"system": "MGC-803", "assay": "Inhibition of cell proliferation in human MGC-803 cells at 5 uM measured by SRB assay", "assay_type": "functional, cell-based", "settings": "time 72.0 hrs"}, "[8]": {"system": "SGC-7901", "assay": "Inhibition of cell proliferation in human SGC-7901 cells at 5 uM measured after 72 hrs by SRB assay", "assay_type": "functional, cell-based"}, "[9]": {"system": "SGC-7901", "assay": "Inhibition of cell proliferation in human SGC-7901 cells at 10 uM measured after 72 hrs by SRB assay", "assay_type": "functional, cell-based"}, "[10]": {"system": "SGC-7901", "assay": "Inhibition of cell proliferation in human SGC-7901 cells at 2.5 uM measured after 72 hrs by SRB assay", "assay_type": "functional, cell-based"}, "[11]": {"system": "MGC-803", "assay": "Induction of apoptosis in human MGC-803 cells assessed as viable cells at 0.625 uM measure after 24 hrs by Annexin-PI staining based Flowcytometry method (reference value: 80%)", "assay_type": "functional", "settings": "read-out: Activity"}, "[12]": {"system": "MGC-803", "assay": "Induction of apoptosis in human MGC-803 cells assessed as early apoptotic cells at 1.25 uM measure after 24 hrs by Annexin-PI staining based Flowcytometry method (reference value: 9.8%)", "assay_type": "functional"}, "[13]": {"system": "MGC-803", "assay": "Induction of apoptosis in human MGC-803 cells assessed as necrotic cells at 1.25 uM measure after 24 hrs by Annexin-PI staining based Flowcytometry method (reference value: 3.13%)", "assay_type": "functional"}, "[14]": {"system": "MGC-803", "assay": "Induction of apoptosis in human MGC-803 cells assessed as viable cells at 2.5 uM measure after 24 hrs by Annexin-PI staining based Flowcytometry method (reference value: 80%)", "assay_type": "functional", "settings": "read-out: Activity"}, "[15]": {"system": "MGC-803", "assay": "Induction of apoptosis in human MGC-803 cells assessed as early apoptotic cells at 2.5 uM measure after 24 hrs by Annexin-PI staining based Flowcytometry method (reference value: 9.8%)", "assay_type": "functional"}, "[16]": {"system": "MGC-803", "assay": "Induction of apoptosis in human MGC-803 cells assessed as necrotic cells at 2.5 uM measure after 24 hrs by Annexin-PI staining based Flowcytometry method (reference value: 3.13%)", "assay_type": "functional"}, "[17]": {"system": "MGC-803", "assay": "Induction of apoptosis in human MGC-803 cells assessed as viable cells at 5 uM measure after 24 hrs by Annexin-PI staining based Flowcytometry method (reference value: 80%)", "assay_type": "functional", "settings": "read-out: Activity"}, "[18]": {"system": "MGC-803", "assay": "Induction of apoptosis in human MGC-803 cells assessed as early apoptotic cells at 5 uM measure after 24 hrs by Annexin-PI staining based Flowcytometry method (reference value: 9.8%)", "assay_type": "functional"}, "[19]": {"system": "MGC-803", "assay": "Induction of apoptosis in human MGC-803 cells assessed as necrotic cells at 5 uM measure after 24 hrs by Annexin-PI staining based Flowcytometry method (reference value: 3.13%)", "assay_type": "functional"}, "[20]": {"system": "MGC-803", "assay": "Induction of apoptosis in human MGC-803 cells assessed as viable cells at 10 uM measure after 24 hrs by Annexin-PI staining based Flowcytometry method (reference value: 80%)", "assay_type": "functional", "settings": "read-out: Activity"}, "[21]": {"system": "MGC-803", "assay": "Induction of apoptosis in human MGC-803 cells assessed as early apoptotic cells at 10 uM measure after 24 hrs by Annexin-PI staining based Flowcytometry method (reference value: 9.8%)", "assay_type": "functional"}, "[22]": {"system": "SGC-7901", "assay": "Induction of apoptosis in human SGC-7901 cells assessed as necrotic cells at 0.625 uM measure after 24 hrs by Annexin-PI staining based Flowcytometry method (reference value: 1.16%)", "assay_type": "functional"}, "[23]": {"system": "SGC-7901", "assay": "Induction of apoptosis in human SGC-7901 cells assessed as early apoptotic cells at 1.25 uM measure after 24 hrs by Annexin-PI staining based Flowcytometry method (reference value: 2.68%)", "assay_type": "functional"}, "[24]": {"system": "SGC-7901", "assay": "Induction of apoptosis in human SGC-7901 cells assessed as necrotic cells at 1.25 uM measure after 24 hrs by Annexin-PI staining based Flowcytometry method (reference value: 1.16%)", "assay_type": "functional"}, "[25]": {"system": "SGC-7901", "assay": "Induction of apoptosis in human SGC-7901 cells assessed as viable cells at 2.5 uM measure after 24 hrs by Annexin-PI staining based Flowcytometry method (reference value: 94.9%)", "assay_type": "functional", "settings": "read-out: Activity"}, "[26]": {"system": "SGC-7901", "assay": "Induction of apoptosis in human SGC-7901 cells assessed as early apoptotic cells at 2.5 uM measure after 24 hrs by Annexin-PI staining based Flowcytometry method (reference value: 2.68%)", "assay_type": "functional"}, "[27]": {"system": "SGC-7901", "assay": "Induction of apoptosis in human SGC-7901 cells assessed as necrotic cells at 2.5 uM measure after 24 hrs by Annexin-PI staining based Flowcytometry method (reference value: 1.16%)", "assay_type": "functional"}, "[28]": {"system": "SGC-7901", "assay": "Induction of apoptosis in human SGC-7901 cells assessed as early apoptotic cells at 10 uM measure after 24 hrs by Annexin-PI staining based Flowcytometry method (reference value: 2.68%)", "assay_type": "functional"}, "[29]": {"system": "MGC-803", "assay": "Induction of mitochondrial membrane potential loss in human MGC-803 cells at 2.5 uM measured after 24 hrs by JC-1 staining based flow cytometry method (reference value: 0.344%)", "settings": "Mitochondria"}, "[30]": {"system": "MGC-803", "assay": "Induction of mitochondrial membrane potential loss in human MGC-803 cells at 5 uM measured after 24 hrs by JC-1 staining based flow cytometry method (reference value: 0.344%)", "settings": "Mitochondria"}, "[31]": {"system": "MGC-803", "assay": "Induction of mitochondrial membrane potential loss in human MGC-803 cells at 10 uM measured after 24 hrs by JC-1 staining based flow cytometry method (reference value: 0.344%)", "settings": "Mitochondria"}, "[32]": {"system": "MGC-803", "assay": "Cytotoxicity against human MGC-803 cells assessed as inhibition of cell viability incubated for 1 hr with Z-VAD-FMK followed by addition of compound", "assay_type": "functional, cell-based"}, "[33]": {"system": "MGC-803", "assay": "Cytotoxicity against human MGC-803 cells assessed as inhibition of cell viability incubated for 1 hr with Z-LEHD-FMK followed by addition of compound", "assay_type": "functional, cell-based"}, "[34]": {"system": "MGC-803", "assay": "Induction of apoptosis in human MGC-803 assessed by cleaved PARP levels incubated for 1 hr with Z-VAD-FMK followed by compound addition measured by western blot assay", "assay_type": "functional, cell-based"}, "[35]": {"system": "MGC-803", "assay": "Antiproliferative activity in human MGC-803 cells assessed as cell viability preincubated with chloroquine followed by compound addition measured after 24 hrs by SRB staining method", "assay_type": "functional, cell-based"}, "[36]": {"system": "MGC-803", "assay": "Induction of apoptosis in human MGC-803 cells assessed as increase in accumulation of LC3B-2 measured after 24 hrs by western blot assay", "assay_type": "functional, cell-based"}, "[37]": {"system": "MGC-803", "assay": "Induction of apoptosis in human MGC-803 cells assessed as increase in accumulation of LC3B-2 preincubated with Chloroquine measured after 24 hrs by western blot assay", "assay_type": "functional, cell-based"}, "[38]": {"assay": "Selectivity index, ratio of GI50 for human MGC803 to GI50 for human GES-1 cells"}}, "note": "The source made the active and inactive calls. The rule behind the calls is not given here.", "data": [{"smiles": "Cc1cc(Nc2ccc(C(=O)/C=C/c3cccc(Br)n3)cc2)n2nc(SCc3nc4ccccc4[nH]3)nc2n1", "values": [{"measurement": "GI50", "setting": "[1]", "value": 640, "unit": "nM"}, {"measurement": "GI50", "setting": "[2]", "value": 640, "unit": "nM"}, {"measurement": "GI50", "setting": "[3]", "value": 640, "unit": "nM"}, {"measurement": "Activity", "setting": "[4]", "value": "Non-Toxic"}, {"measurement": "Activity", "setting": "[5]", "value": "Active"}, {"measurement": "Activity", "setting": "[6]", "value": "Active"}, {"measurement": "inhibition", "setting": "[7]", "value": "Active"}, {"measurement": "inhibition", "setting": "[8]", "value": "Active"}, {"measurement": "inhibition", "setting": "[9]", "value": "Active"}, {"measurement": "inhibition", "setting": "[10]", "value": "inactive"}, {"measurement": "viability at 0.625 µM", "setting": "[11]", "value": 91.6, "unit": "%"}, {"measurement": "Activity", "setting": "[12]", "value": 7.21, "unit": "%"}, {"measurement": "Activity", "setting": "[13]", "value": 2.25, "unit": "%"}, {"measurement": "viability at 2.5 µM", "setting": "[14]", "value": 86.4, "unit": "%"}, {"measurement": "Activity", "setting": "[15]", "value": 7.11, "unit": "%"}, {"measurement": "Activity", "setting": "[16]", "value": 1.75, "unit": "%"}, {"measurement": "viability at 5 µM", "setting": "[17]", "value": 73.8, "unit": "%"}, {"measurement": "Activity", "setting": "[18]", "value": 6.25, "unit": "%"}, {"measurement": "Activity", "setting": "[19]", "value": 4.51, "unit": "%"}, {"measurement": "viability at 10 µM", "setting": "[20]", "value": 45.3, "unit": "%"}, {"measurement": "Activity", "setting": "[21]", "value": 9.48, "unit": "%"}, {"measurement": "Activity", "setting": "[22]", "value": 1.96, "unit": "%"}, {"measurement": "Activity", "setting": "[23]", "value": 1.59, "unit": "%"}, {"measurement": "Activity", "setting": "[24]", "value": 2.24, "unit": "%"}, {"measurement": "viability at 2.5 µM", "setting": "[25]", "value": 88.3, "unit": "%"}, {"measurement": "Activity", "setting": "[26]", "value": 5, "unit": "%"}, {"measurement": "Activity", "setting": "[27]", "value": 1.15, "unit": "%"}, {"measurement": "Activity", "setting": "[28]", "value": 8.54, "unit": "%"}, {"measurement": "Activity", "setting": "[29]", "value": 3.25, "unit": "%"}, {"measurement": "Activity", "setting": "[30]", "value": 3.13, "unit": "%"}, {"measurement": "Activity", "setting": "[31]", "value": 10.7, "unit": "%"}, {"measurement": "inhibition", "setting": "[32]", "value": "inactive"}, {"measurement": "inhibition", "setting": "[33]", "value": "inactive"}, {"measurement": "Activity", "setting": "[34]", "value": "inactive"}, {"measurement": "inhibition", "setting": "[35]", "value": "inactive"}, {"measurement": "Activity", "setting": "[36]", "value": "Active"}, {"measurement": "Activity", "setting": "[37]", "value": "Active"}, {"measurement": "RatioGI50", "setting": "[38]", "value": 6.9}]}]}
